Two compounds from patent US9492424B2, “Muscle atrophy inhibitor” (MORINAGA MILK INDUSTRY CO., LTD., priority 2011, dated 2016) can be followed below.

In experiment [1] the test system is atrogin-1 gene. Briefly: expression amount of atrogin-1 gene in tibialis anterior muscle by real time PCR. The format is in vivo, rat. The conditions noted are these: Example 3. The text has this: (§1) The tibialis anterior muscles collected in Example 1 mentioned above were used to evaluate expression amounts of genes that participate in muscle atrophy.
(§2) The tibialis anterior muscle was frozen in liquid nitrogen immediately after the collection, and homogenized in Trizol Reagent (Invitrogen), and the total RNA was extracted by using RNeasy Mini Kit (QIAGEN). cDNA was obtained by the total RNA by using High Capacity cDNA Reverse Kit (ABI). The cDNA, primers for amplifying each of the atrogin-1, MuRF1, and myostatin genes (ABI), and Taqman Fast Universal PCR Master Mix (ABI) were mixed, and expression amount of each gene in the test sample was relatively quantified by the real time PCR method, with taking the gene expression amount in the DEX group as 1. In statistical analysis, it was determined whether there were statistically significant differences between the values obtained for the DEX group and the values obtained for the other groups according to the Dunnett test.
(§3) In Examples 1 and 2, 1 mass % of the extract of Citrus depressa was added to the feed, and fed. […]

The test system of experiment [2] is MuRF1 gene. Briefly: expression amount of MuRF1 gene in tibialis anterior muscle by real time PCR. The class given is in vivo, rat. Particulars: Example 3.
Excerpt: as §1, §2, §3

As for `COc1ccc(-c2cc(=O)c3c(OC)c(OC)c(OC)c(OC)c3o2)cc1OC` [NOB, nobiletin], the “expression amount of the atrogin-1 gene relative to DEX group taken as 1.0” value in experiment [1] (eight-month old SD rats, 0.0007 mass % in feed for two weeks, dexamethasone) was 0.85±0.29. Besides, the “ingestion amount with which the effect can be expected” value in experiment [1] (from feed intake and body weight of the NOB group, 19 days ingestion) is recorded as “about 0.2 mg/kg/day”.
Turning to `COc1ccc(-c2cc(=O)c3c(OC)c(OC)c(OC)c(OC)c3o2)cc1` [TAN, tangeretin], the “expression amount of the MuRF1 gene relative to DEX group taken as 1.0” value in experiment [2] (eight-month old SD rats, 0.0004 mass % in feed for two weeks, dexamethasone) was 0.77±0.35. For the same compound, the “ingestion amount with which the effect can be expected” value in experiment [2] (from feed intake and body weight of the TAN group, 19 days ingestion) is recorded as “about 0.1 mg/kg/day”.
